Test results: patent US8404869B2, “Phenanthrenequinone-based compound and pharmaceutical composition containing the same for the treatment or prevention of disease involving metabolic syndrome” (Mazence Inc., priority 2007, dated 2013)

Legend:
[1] = test system: AMPK; assay: Determination of AMPK activation in differentiated C2C12 myoblast cells (SAMS peptide, [γ-32P]ATP); assay type: cell-based; conditions: C2C12 myoblast cells treated at 5 μg/ml; DMSO (0.5%) control = 1
Experimental: Myoblast cells, C2C12, were cultured in DMEM containing 10% bovine calf serum. When a cell density reached a range of about 85% to 90%, the culture medium was replaced with a medium containing 1% bovine calf serum to induce differentiation of cells. The thus-differentiated myoblast cells were treated with samples synthesized in Examples 1 through 16 at a concentration of 5 μg/ml, and compared with a control group. Enzymatic activity of AMPK was determined as follows. Firstly, C2C12 cells were lysed to obtain protein extracts and then ammonium sulfate was added to a final concentration of 30%, thereby precipitating proteins. Protein precipitates were dissolved in a buffer (62.5 mM Hepes, pH 7.2, 62.5 mM NaCl, 62.5 mM NaF, 1.25 mM Na pyrophosphate, 1.25 mM EDTA, 1 mM DTT, 0.1 mM PMSF, and 200 μM AMP). Thereafter, 200 μM SAMS peptide (HMRSAMSGLHLVKRR: the underlined serine residue is a phosphorylation site, as an AMPK phosphorylation site of acetyl-CoA carboxylase) and [γ-32P]ATP were added thereto and reactants were reacted for 10 minutes at 30° C. This was followed by spotting of the resulting reaction solution on p81 phosphocellulose paper. The p81 paper was washed with a 3% phosphoric acid solution and radioactivity thereof was measured. For each reaction condition, reactions involving no SAMS peptide were also conducted and basic values were subtracted from the thus-observed values.

[2] = test system: C57BL/6JL Lep ob/Lep ob mice; assay: Weight loss effects in obese mice (ob/ob); assay type: in vivo; conditions: mixed-feed of 0.4% for 18 days; for Increase in BW / change in vivo at 0.4 % in feed: (Final BW−Initial BW)/Initial BW×100; for Final BW: ob/ob male mice; for change in vivo at 0.4 % in feed: Mus musculus, po, 432 h, read-out: Increase in BW
Experimental: (§1) 10-week-old C57BL/6JL Lep ob/Lep ob male mice having obesity characteristics and predisposition were purchased from Daehan Biolink Co., Ltd. (Chungchongbuk-do, Korea). Animals were raised in a breeding room maintained at a temperature of 23° C., 55% humidity, illumination of 300 to 500 lux, a 12-h light/dark (L/D) cycle, and ventilation of 10 to 18 times/hr. Animals were fed ad libitum pellets of Purina Rodent Laboratory Chow 5001 (purchased from Purina Mills Inc., St. Louis, Mo., USA) as a solid feed for experimental animals and tap water as drinking water. Mice were allowed to acclimate to new environment of the breeding room for two weeks and were then administered some pyrano-3,4-phenanthrenequinone or furano-3,4-naphthoquinone derivatives synthesized according to the present invention at mixed-feed of 0.4% for 18 days. Observation was made on changes in body weight, blood glucose and dietary intake, with respect to a time course of administration. After administration was complete, confirm changes in glucose, lipid and enzyme levels in blood.
(§2) For comparison, the same experiments were carried out for the subject (negative control group) to which the active ingredient was not administered, and subject (positive control group) to which Cryptotanshinone, extracted from Danshen by a method as set forth in Example 1 of the Korean Patent Application No. 2004-0116339 by the present applicant, was administered by the above-mentioned condition.
Herein, ‘Increase in BW’ is calculated as the following; Increase in BW=(Final BW−Initial BW)/Initial BW×100

[3] = test system: C57BL/6JL Lep ob/Lep ob mice; assay: Blood biomarkers (lipid, glucose, enzyme levels) in ob/ob mice; assay type: in vivo; parameters: unit not given here; conditions: after mixed-feed of 0.4% for 18 days
Experimental: as §1, §2

SMILES	AMPK fold [1]	Final BW [2]	change in vivo at 0.4 % in feed [2]	GOT [3]	GPT [3]	HDL chol [3]	LDL chol [3]	T. chol [3]	glucose [3]	triglyceride [3]	also measured
CC1CC2=C(O1)c1ccc3c(c1C(=O)C2=O)CCCC3(C)C (single isomer, unassigned) [Example 2, 2,6,6-Trimethyl-1,2,6,7,8,9-hexahydro-phenanthro[1,2-b]furan-10,11-dione]	2.4 fold	44.4 ± 3.4 g									Increase in BW [2]: −15.9%; GOT ([3]; listed as Ex. 2): 378.8; GPT ([3]; listed as Ex. 2): 215.0; HDL chol ([3]; listed as Ex. 2): 38.8; LDL chol ([3]; listed as Ex. 2): 21.67; T. chol ([3]; listed as Ex. 2): 125.0; glucose ([3]; listed as Ex. 2): 125; triglyceride ([3]; listed as Ex. 2): 58.8
CC1CC2=C(O1)c1ccc3c(c1C(=O)C2=O)CCCC3(C)C (single isomer, unassigned) [Example 3, 2,6,6-Trimethyl-1,2,6,7,8,9-hexahydro-phenanthro[1,2-b]furan-10,11-dione]	2.2 fold	46.1 ± 2.1 g									Increase in BW [2]: −11.9%; GOT ([3]; listed as Ex. 3): 247.5; GPT ([3]; listed as Ex. 3): 160.0; HDL chol ([3]; listed as Ex. 3): 42.5; LDL chol ([3]; listed as Ex. 3): 12.00; T. chol ([3]; listed as Ex. 3): 134.0; glucose ([3]; listed as Ex. 3): 132; triglyceride ([3]; listed as Ex. 3): 61.7
CC1CC2=C(O1)c1ccc3c(c1C(=O)C2=O)CCCC3 (stereo not drawn) [Example 1, 2-Methyl-1,2,6,7,8,9-hexahydro-phenanthro[1,2-b]furan-10,11-dione]	2.2 fold	45.3 ± 1.7 g	-14.2%	233.3	118.8	42.5	13.00	141.7	120	81.7	
CC1OC2=C(C(=O)C(=O)c3c2ccc2c3CCCC2(C)C)C1(C)C (stereo not drawn) [Example 4, 1,1,2,6,6-Pentamethyl-1,2,6,7,8,9-hexahydro-phenanthro[1,2-b]furan-10,11-dione]	2.2 fold	48.6 ± 3.3 g	-7.1%	476.7	285.0	45.0	10.00	127.5	128	76.7	
CC1C2=C(OC1(C)C)c1ccc3c(c1C(=O)C2=O)CCCC3(C)C (stereo not drawn) [Example 5, 1,2,2,6,6-Pentamethyl-1,2,6,7,8,9-hexahydro-phenanthro[1,2-b]furan-10,11-dione]	2.3 fold	47.9 ± 3.1 g	-7.8%	377.5	251.0	45.5	14.05	126.5	141	77.0	
CC1(C)CCC2=C(O1)c1ccc3c(c1C(=O)C2=O)CCCC3 [Example 6, 3,3-Dimethyl-2,3,7,8,9,10-hexahydro-1H-4-oxa-chrysene-11,12-dione]	2.2 fold	49.0 ± 2.7 g	-6.3%	392.5	250.0	49.0	13.00	129.5	145	69.5	
CC1CC2=C(O1)c1ccc3ccccc3c1C(=O)C2=O (stereo not drawn) [Example 7, 2-Methyl-1,2-dihydro-phenanthro[1,2-b]furan-10,11-dione]	2.2 fold	49.6 ± 2.6 g	-3.9%	286.7	143.8	58.8	14.00	148.8	156	70.0	
CC1OC2=C(C(=O)C(=O)c3c2ccc2ccccc32)C1(C)C (stereo not drawn) [Example 8, 1,1,2-Trimethyl-1,2-dihydro-phenanthro[1,2-b]furan-10,11-dione]	2.5 fold	41.1 ± 1.3 g	-20.3%	376.5	241.0	48.0	13.75	132.5	118	79.5	
Cc1cc2c(c3ccccc13)C(=O)C(=O)C1=C2OC(C)C1 (stereo not drawn) [Example 9, 2,5-Dimethyl-1,2-dihydro-phenanthro[1,2-b]furan-10,11-dione]	2.3 fold	48.9 ± 1.7 g	-6%	355.0	77.0	48.0	11.00	135.0	136	72.0	
Cc1cc2c(c3ccccc13)C(=O)C(=O)C1=C2OC(C)C1(C)C (stereo not drawn) [Example 10, 1,1,2,5-Tetramethyl-1,2-dihydro-phenanthro[1,2-b]furan-10,11-dione]	2.4 fold	41.1 ± 1.3 g	-20.3%	283.3	66.7	45.0	5.00	115.0	121	88.3	
CC1CC2=C(O1)c1ccc3ccc(C(C)(C)C)cc3c1C(=O)C2=O (stereo not drawn) [Example 11, 8-tert-Butyl-2-methyl-1,2-dihydro-phenanthro[1,2-b]furan-10,11-dione]	2.3 fold	52.2 ± 1.4 g	-1.2%	347.5	197.5	47.5	9.95	134.0	175	82.0	
CC1OC2=C(C(=O)C(=O)c3c2ccc2ccc(C(C)(C)C)cc32)C1(C)C (stereo not drawn) [Example 12, 8-tert-Butyl-1,1,2-trimethyl-1,2-dihydro-phenanthro[1,2-b]furan-10,11-dione]	2.2 fold	48.3 ± 2.3 g	-6.9%	355.0	77.0	48.0	11.00	135.0	153	69.0	
CC1CC2=C(O1)c1ccc3ccc(Cl)cc3c1C(=O)C2=O (stereo not drawn) [Example 13, 8-Chloro-2-methyl-1,2-dihydro-phenanthro[1,2-b]furan-10,11-dione]	2.3 fold	48.8 ± 2.5 g	-6.3%	373.5	184.0	44.0	12.00	125.5	138	85.3	
C[C@H]1COC2=C1C(=O)C(=O)c1c2ccc2c1CCCC2(C)C [Positive control group, Cryptotanshinone, reference compound]		51.6 ± 1.7 g	-1.2%	255.0	149.0	48.0	11.0	135.0		100.9	
